These results are taken from PubChem BioAssay (NCI).

The structures appear in SMILES notation.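 Tested at 5 concentrations; 48 h exposure; 96-well plates; endpoints linearly interpolated, else capped at highest concentration. The concentration for full growth arrest is given as TGI.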

For one test, the system named is KM12 colon. In words: NCI tumour cell line growth inhibition, 48 h.
As for `O=[N+]([O-])c1ccc(-c2csc3nc(-c4ccccc4)nn23)cc1`, the TGI was more than 100 µM.
Still for that read-out and setting: under `NC1CC(=O)c2sc(I)cc21` (stereo not drawn) stands more than 100 µM; under `COc1cccc(N=Cc2cc3cc(Br)ccc3nc2Cl)c1`, more than 50 µM; under `O=C(/C=C(\O)c1ccccc1)C(=O)NNc1ccc([N+](=O)[O-])cc1[N+](=O)[O-]`, 33.7 µM.

The next test deals with A498 renal. In words: NCI tumour cell line growth inhibition, 48 h.
`O=[N+]([O-])c1ccc(-c2csc3nc(-c4ccccc4)nn23)cc1` gave a TGI of more than 100 µM.
On the same count and under the same terms, under `NC1CC(=O)c2sc(I)cc21` (stereo not drawn) stands more than 100 µM; under `O=C(/C=C(\O)c1ccccc1)C(=O)NNc1ccc([N+](=O)[O-])cc1[N+](=O)[O-]`, 70.4 µM.

A further test has as its system NCI-H522 lung. In words: NCI tumour cell line growth inhibition, 48 h.
For `O=[N+]([O-])c1ccc(-c2csc3nc(-c4ccccc4)nn23)cc1`, the TGI is more than 100 µM.
The same measure, in the same setting: under `COc1cccc(N=Cc2cc3cc(Br)ccc3nc2Cl)c1` stands more than 50 µM.
For `O=C(/C=C(\O)c1ccccc1)C(=O)NNc1ccc([N+](=O)[O-])cc1[N+](=O)[O-]`, the TGI stood at 82.4 µM.

For the next test, the system named is MDA-MB-435. In words: NCI tumour cell line growth inhibition, 48 h.
Take `O=[N+]([O-])c1ccc(-c2csc3nc(-c4ccccc4)nn23)cc1`: the TGI is more than 100 µM.
The same measure, in the same setting: the result for `NC1CC(=O)c2sc(I)cc21` (stereo not drawn) reads more than 100 µM; that for `COc1cccc(N=Cc2cc3cc(Br)ccc3nc2Cl)c1`, more than 50 µM; that for `O=C(/C=C(\O)c1ccccc1)C(=O)NNc1ccc([N+](=O)[O-])cc1[N+](=O)[O-]`, more than 100 µM.

In the next test the test system is NCI-H226 lung. In words: NCI tumour cell line growth inhibition, 48 h.
Take `O=[N+]([O-])c1ccc(-c2csc3nc(-c4ccccc4)nn23)cc1`: the TGI is more than 100 µM.
On the same count and under the same terms, the result for `COc1cccc(N=Cc2cc3cc(Br)ccc3nc2Cl)c1` reads 25.7 µM.
`O=C(/C=C(\O)c1ccccc1)C(=O)NNc1ccc([N+](=O)[O-])cc1[N+](=O)[O-]` returned a TGI of 50.4 µM.

In another test the test system is NCI-H23 lung. In words: NCI tumour cell line growth inhibition, 48 h.
In turn, `O=[N+]([O-])c1ccc(-c2csc3nc(-c4ccccc4)nn23)cc1` registered a TGI of more than 100 µM.
On the same count and under the same terms, the result for `COc1cccc(N=Cc2cc3cc(Br)ccc3nc2Cl)c1` reads more than 50 µM; that for `O=C(/C=C(\O)c1ccccc1)C(=O)NNc1ccc([N+](=O)[O-])cc1[N+](=O)[O-]`, 47.2 µM.

The subject of a further test is UO-31 renal. In words: NCI tumour cell line growth inhibition, 48 h.
Compound `O=[N+]([O-])c1ccc(-c2csc3nc(-c4ccccc4)nn23)cc1` registered a TGI of more than 100 µM.
The same measure, in the same setting: under `NC1CC(=O)c2sc(I)cc21` (stereo not drawn) stands more than 100 µM; under `COc1cccc(N=Cc2cc3cc(Br)ccc3nc2Cl)c1`, more than 50 µM.
Same read-out and setting: under `O=C(/C=C(\O)c1ccccc1)C(=O)NNc1ccc([N+](=O)[O-])cc1[N+](=O)[O-]` stands 27.5 µM.

The next test relates to HCC-2998 colon. In words: NCI tumour cell line growth inhibition, 48 h.
For `O=[N+]([O-])c1ccc(-c2csc3nc(-c4ccccc4)nn23)cc1`, the TGI was more than 100 µM.
Still for that read-out and setting: the result for `NC1CC(=O)c2sc(I)cc21` (stereo not drawn) reads more than 100 µM; that for `COc1cccc(N=Cc2cc3cc(Br)ccc3nc2Cl)c1`, more than 50 µM.
As for `O=C(/C=C(\O)c1ccccc1)C(=O)NNc1ccc([N+](=O)[O-])cc1[N+](=O)[O-]`, the TGI was determined as 30 µM.

Another test has as its system COLO 205 colon. In words: NCI tumour cell line growth inhibition, 48 h.
In turn, `O=[N+]([O-])c1ccc(-c2csc3nc(-c4ccccc4)nn23)cc1` had a TGI of more than 100 µM.
With `NC1CC(=O)c2sc(I)cc21` (stereo not drawn), the TGI was more than 100 µM.
The same measure, in the same setting: the result for `COc1cccc(N=Cc2cc3cc(Br)ccc3nc2Cl)c1` reads more than 50 µM; that for `O=C(/C=C(\O)c1ccccc1)C(=O)NNc1ccc([N+](=O)[O-])cc1[N+](=O)[O-]`, 32.3 µM.

The next test has as its system HOP-92 NSCLC. In words: NCI tumour cell line growth inhibition, 48 h.
Turning to `O=[N+]([O-])c1ccc(-c2csc3nc(-c4ccccc4)nn23)cc1`, the TGI was more than 100 µM.
On the same count and under the same terms, the result for `COc1cccc(N=Cc2cc3cc(Br)ccc3nc2Cl)c1` reads more than 50 µM.

Another test concerns OVCAR-4 ovarian. In words: NCI tumour cell line growth inhibition, 48 h.
With `O=[N+]([O-])c1ccc(-c2csc3nc(-c4ccccc4)nn23)cc1`, the TGI is more than 100 µM.
On the same count and under the same terms, under `COc1cccc(N=Cc2cc3cc(Br)ccc3nc2Cl)c1` stands 2.63 µM; under `O=C(/C=C(\O)c1ccccc1)C(=O)NNc1ccc([N+](=O)[O-])cc1[N+](=O)[O-]`, 95 µM.

A further test has as its system MOLT-4 leukemia. In words: NCI tumour cell line growth inhibition, 48 h.
Consider `O=[N+]([O-])c1ccc(-c2csc3nc(-c4ccccc4)nn23)cc1`, for which the TGI was more than 100 µM.
Same read-out and setting: under `NC1CC(=O)c2sc(I)cc21` (stereo not drawn) stands more than 100 µM; under `COc1cccc(N=Cc2cc3cc(Br)ccc3nc2Cl)c1`, more than 50 µM.
On the same count and under the same terms, the result for `O=C(/C=C(\O)c1ccccc1)C(=O)NNc1ccc([N+](=O)[O-])cc1[N+](=O)[O-]` reads 38.3 µM.

The test system of another test is NCI-H460 lung. In words: NCI tumour cell line growth inhibition, 48 h.
`NC1CC(=O)c2sc(I)cc21` (stereo not drawn) had a TGI of more than 100 µM.
Still for that read-out and setting: under `COc1cccc(N=Cc2cc3cc(Br)ccc3nc2Cl)c1` stands more than 50 µM.
In turn, `O=C(/C=C(\O)c1ccccc1)C(=O)NNc1ccc([N+](=O)[O-])cc1[N+](=O)[O-]` had a TGI of 40.2 µM.

For a further test, the system named is HOP-62 NSCLC. In words: NCI tumour cell line growth inhibition, 48 h.
`O=[N+]([O-])c1ccc(-c2csc3nc(-c4ccccc4)nn23)cc1` registered a TGI of more than 100 µM.
Turning to `NC1CC(=O)c2sc(I)cc21` (stereo not drawn), the TGI was more than 100 µM.
On the same count and under the same terms, the result for `COc1cccc(N=Cc2cc3cc(Br)ccc3nc2Cl)c1` reads more than 50 µM.
Still for that read-out and setting: the result for `O=C(/C=C(\O)c1ccccc1)C(=O)NNc1ccc([N+](=O)[O-])cc1[N+](=O)[O-]` reads 37.8 µM.

The subject of the next test is HS 578T breast. In words: NCI tumour cell line growth inhibition, 48 h.
`O=[N+]([O-])c1ccc(-c2csc3nc(-c4ccccc4)nn23)cc1` showed a TGI of more than 100 µM.
Same read-out and setting: the result for `COc1cccc(N=Cc2cc3cc(Br)ccc3nc2Cl)c1` reads more than 50 µM.

The test system of a further test is RPMI-8226 leukemia. In words: NCI tumour cell line growth inhibition, 48 h.
With `O=[N+]([O-])c1ccc(-c2csc3nc(-c4ccccc4)nn23)cc1`, the TGI was more than 100 µM.
`NC1CC(=O)c2sc(I)cc21` (stereo not drawn): the TGI was more than 100 µM.
As to `COc1cccc(N=Cc2cc3cc(Br)ccc3nc2Cl)c1`, the TGI worked out at 41.6 µM.
